From the Deep4Chem optical property database come the findings set out here.

This series is described as follows: solvent given as SMILES.

Molecules are shown by their SMILES.

The molecule `CCCCCCCCC1(CCCCCCCC)c2cc(C=O)ccc2-c2ccc(/C=C/c3ccc(N(c4ccccc4)c4ccccc4)cc3)cc21` yielded an emission maximum (in C1CCOC1) of 451 nm; an emission maximum (in C1COCCO1) of 450 nm; an emission maximum (in CC#N) of 486 nm; an emission maximum (in CC(C)=O) of 481 nm; an emission maximum (in CCCCCC) of 442 nm; an emission maximum (in CCOC(C)=O) of 456 nm. The emission maximum runs as follows: (in CN(C)C=O) 490 nm; (in CS(C)=O) 485 nm; (in Cc1ccccc1) 451 nm; (in ClC(Cl)Cl) 459 nm; (in ClCCl) 469 nm.

Molecule `Cc1cc2c3ccccc3[nH]c2c2[nH]c3ccccc3c12` yielded an emission maximum (in ClCCl) of 371 nm.

For the setting “in ClC(Cl)Cl”, `CCOC(=O)C1(O)c2cc3ccc4cccc5ccc(c2C(=O)N1C(C)(C)C)c3c45` (configuration not stated) came in with an emission maximum of 387 nm.

Take `CCOC(=O)CN(CC(=O)OCC)c1ccc(-c2cc(-c3ccccn3)nc(-c3ccccn3)c2)cc1`: the emission maximum was 452 nm (in CC#N); 419 nm (in CCOC(C)=O); 458 nm (in CN(C)C=O); 466 nm (in CS(C)=O); 400 nm (in c1ccccc1).

On to `c1ccc(C2=C(c3ccccc3)c3cccc4c5c(cc(c34)O2)=NC2CCCCC2N=5)cc1` (configuration not stated), for which, under “in ClCCl”, the emission maximum amounted to 545 nm.

`C(=N\c1ccc(-c2cn3nc(-c4cccs4)sc3n2)cc1)/c1c2ccccc2cc2ccccc12` displayed an emission maximum (in ClC(Cl)Cl) of 526 nm.

As to `Cc1cc(C)c(B2c3cc(C(C)(C)C)ccc3-c3cccc4cc(C(C)(C)C)cc2c34)c(C)c1`, the emission maximum (in C1CCCCC1) is recorded as 431 nm.

Molecule `COCCOCCOCN1C(=O)c2ccc3c(-c4ccccc4)c4c5ccc6c7c(ccc(c(-c8ccccc8)c4c4ccc(c2c34)C1=O)c75)C(=O)N(COCCOCCOC)C6=O` had an emission maximum (in ClCCl) of 695 nm.

With `CCN(CC)c1ccc2c(c1)oc(=O)c1cnc3c(c(C)nn3-c3ccccc3)c12`, the emission maximum (in ClCCl) was determined as 445 nm.

As for `O=c1c2cc(Cl)ccc2nc2n1[B-](F)(F)[n+]1ccccc1-2`, the emission maximum reads like this: (in CC#N) 439 nm; (in ClCCl) 444 nm.

Regarding `Cn1c(=O)c(/N=N/c2ccc(Nc3ccc([N+](=O)[O-])cc3S(=O)(=O)O)cc2)c(O)c2ccccc21`, the emission maximum came to 615 nm (in C1CCOC1); 617 nm (in CC(C)=O); 610 nm (in CCOC(C)=O); 619 nm (in CO); 622 nm (in CS(C)=O); 605 nm (in Cc1ccccc1). Further, the emission maximum was 617 nm (in ClCCl) and 636 nm (in O).

Regarding `CC[N+]1(CC)CN2C(=N1)C(C(=O)O)=Cc1cc(Cl)ccc12`, the emission maximum (in O) came to 472 nm.

Under “in CC#N”, `N#Cc1cccc(-c2pc3ccccc3s2)c1` (configuration not stated) showed an emission maximum of 432 nm.

For `COc1cc2c(cc1OC)C1=C[C@H](c3ccc(C)cc3)C3(C(C#N)=C(C#N)N1CC2)c1ccccc1-c1ccccc13`, the emission maximum (in ClCCl) is given as 403 nm.

`COC(=O)c1[nH]c(-c2ccc(Br)cc2)c2nnc3ccc(OC)cc3c12`: the emission maximum (in ClCCl) came out at 475 nm.

For the molecule `CC(C)[Si](C#Cc1ccc(C#C[Si](C(C)C)(C(C)C)C(C)C)c2nc3c4ccccc4c(=O)c4ccccc4c3nc12)(C(C)C)C(C)C`, the emission maximum (in ClCCl) is recorded as 455 nm.

For `COc1ccc2c(c1)-c1cc(OC)ccc1C2=O`, the emission maximum (in C1CCCCC1) was determined as 490 nm, the emission maximum (in CC#N) came out at 514 nm and the emission maximum (in CCO) was found to be 552 nm.

On to `CCN(CC)c1ccc2cc(-c3csc(NC(C)=O)c3C#N)c(=O)oc2c1`, for which the emission maximum is on record as 457 nm (in C1CCOC1); 477 nm (in CO); 479 nm (in CS(C)=O); 448 nm (in Cc1ccccc1); 463 nm (in ClCCl).

Regarding `CCOc1ccc(/C=C/C=C/C=C/c2ccc([N+](=O)[O-])cc2)cc1`, the emission maximum is reported as 488 nm (in CC1CCCCC1), 740 nm (in CC#N), 541 nm (in Cc1ccccc1) and 694 nm (in ClCCl).

`CN1CCCc2cc(C3=Cc4cccc[n+]4[B-](F)(F)O3)ccc21` displayed an emission maximum (in ClC(Cl)Cl) of 508 nm.

Turning to `N#CC(C#N)=Cc1ccc(-c2cccc(-c3nc4ccccc4s3)c2O)s1`, the emission maximum is on record as 630 nm (in CCO), 607 nm (in ClCCl) and 646 nm (in O).

Consider `Cc1ccc2ccc3c(C)ccc4ccc1c2c43`, for which the emission maximum stood at 380 nm (in CCCCCC), 381 nm (in CO) and 382 nm (in ClCCl).

In turn, `CC1=[N+]2C(=C(c3ccc(C(=C(c4ccccc4)c4ccccc4)c4ccccc4)cc3)c3ccc(/C=C/c4ccc(C(=C(c5ccccc5)c5ccccc5)c5ccccc5)cc4)n3[B-]2(F)F)C=C1` returned an emission maximum (in C1CCOC1) of 612 nm.

Turning to `C[P+]1(c2ccccc2)c2ccccc2-c2sc3ccccc3c21` (configuration not stated), the emission maximum (in CC#N) was 442 nm, the emission maximum (in CCO) worked out at 442 nm and the emission maximum (in ClCCl) worked out at 445 nm.

On to `N#CC(C#N)=Cc1ccc(-c2ccc(N(c3ccccc3)c3ccccc3)cc2)cc1`, for which the emission maximum (in ClC(Cl)Cl) is 634 nm.

`c1ccc(-n2c3ccccc3c3c2c2ccccc2n3-c2ccccc2)cc1` gave an emission maximum (in Cc1ccccc1) of 376 nm.

With `CCCN1/C(=C/C=C(/C=C/C2=[N+](CCC)c3ccccc3C2(C)C)c2ccc3ccccc3n2)C(C)(C)c2ccccc21`, the emission maximum reads like this: (in CO) 652 nm; (in CS(C)=O) 664 nm; (in O) 653 nm.

`CCCCC(CC)CN1C(=O)C2=C(c3ccc(-c4ccc(C5=C6C(C)=CC(C)=[N+]6[B-](F)(F)n6c(C)cc(C)c65)cc4)s3)N(CC(CC)CCCC)C(=O)C2=C1c1ccc(-c2ccc(C3=C4C(C)=CC(C)=[N+]4[B-](F)(F)n4c(C)cc(C)c43)cc2)s1` (configuration not stated) gave an emission maximum (in Cc1ccccc1) of 637 nm.

Consider `FC(F)(F)c1c(-n2c3ccccc3c3ccccc32)c(-n2c3ccccc3c3ccccc32)c(-n2c3ccccc3c3ccccc32)c(-n2c3ccccc3c3ccccc32)c1-n1c2ccccc2c2ccccc21`, for which the emission maximum (in ClCCl) stood at 481 nm.

`Cc1cc(C)c(B(c2cc(-c3ccc(C(C)(C)C)cc3)sc2-c2sc(-c3ccc(C(C)(C)C)cc3)cc2P(=O)(c2ccccc2)c2ccccc2)c2c(C)cc(C)cc2C)c(C)c1` showed an emission maximum (in CO) of 572 nm.

Regarding `CCCCN1C(=O)c2cc(Oc3ccc(C(C)(C)C)cc3)c3c4c(Oc5ccc(C(C)(C)C)cc5)cc5c(=O)n6c(c7cc(Oc8ccc(C(C)(C)C)cc8)c(c8c(Oc9ccc(C(C)(C)C)cc9)cc(c2c38)C1=O)c4c57)=Cc1ccc2ccccc2[n+]1[B-]6(F)F`, the emission maximum (in ClCCl) turned out to be 684 nm.

On to `CN(C)c1ccc(C2=[N+]3C(=Nc4c(-c5ccccc5)cc(-c5ccc(N(C)C)cc5)n4[B-]3(F)F)C(c3ccccc3)=C2)cc1`, for which, under “in ClC(Cl)Cl”, the emission maximum is 823 nm.

For the molecule `CCCCN(CCCC)c1ccc2c(c1)C#CC#Cc1cc(C(F)(F)F)ccc1C#Cc1cc(c3cc1C#Cc1ccc(N(CCCC)CCCC)cc1C#CC#Cc1cc(C(F)(F)F)ccc1C#C3)C#C2`, the emission maximum runs as follows: (in ClCCl) 558 nm; (in c1ccccc1) 522 nm.

For `C(=C\c1nc2ccccc2o1)/c1ccccc1`, the emission maximum is on record as 380 nm (in C1CCCCC1) and 380 nm (in CO).

Take `C#Cc1ccc(C#Cc2cnc(C#Cc3ccccc3)nc2)cc1`: where the note is “in C1CCCCC1”, the emission maximum is listed as 415 nm.

On to `CCCCOc1c(OC)cc2cc(OC)c(OCCCC)c3c4c(OCCCC)c(OC)cc5cc(OC)c(OCCCC)c(c1c23)c54`, for which the emission maximum (in ClCCl) was found to be 474 nm.

In the case of `COc1ccc(-c2c3ccccc3c(-c3ccc(OC)cc3)c3ccccc23)cc1`, the emission maximum (in ClCCl) is reported as 427 nm.

For the setting “in C1COCCO1”, `COc1ccc(-c2ccc(-c3ccc(F)cc3)cc2)cc1` had an emission maximum of 352 nm.

Take `COC(=O)c1c(-c2cc3ccccc3oc2=O)nn(-c2ccc(Br)cc2)c1C(=O)OC`: where the note is “in ClCCl”, the emission maximum is given as 401 nm.

For the molecule `N#Cc1c(N2CCCCC2)cc(-c2ccc3ccccc3c2)c2c1-c1ccccc1C2`, the emission maximum (in C1CCOC1) was 462 nm.

On to `CCN(CC)c1ccc2c(c1)oc(=O)c1c(C)nc3c(cnn3-c3ccccc3)c12`, for which the emission maximum (in ClCCl) worked out at 439 nm.

Take `COc1ccc(C(=Cc2ccc(C#N)cc2)c2ccc(OC)cc2)cc1`: the emission maximum (in C1CCOC1) is on record as 395 nm.

In turn, `CC(C)[Si](C#Cc1c2ccccc2c(C#C[Si](C(C)C)(C(C)C)C(C)C)c2nc3c4ccccc4c(=O)c4ccccc4c3nc12)(C(C)C)C(C)C` yielded an emission maximum (in ClCCl) of 544 nm.

`Cc1cc2nc3[nH]c(=O)n(C)c(=O)c3nc2cc1C` registered an emission maximum (in CC#N) of 436 nm.

`COc1ccc(C#Cc2ncc(-c3ccccc3)o2)cc1OC` registered an emission maximum (in ClCCl) of 390 nm.

Turning to `CC(=O)Nc1ccc(/C=C2\OC(=O)c3cc(N)ccc32)cc1`, the emission maximum was found to be 455.79 nm (in CC#N); 453.31 nm (in CC(C)=O); 482.86 nm (in CC(C)CO); 483.09 nm (in CC(C)O); 484.26 nm (in CCCO); 485.91 nm (in CCO). Moreover, the emission maximum is, setting by setting: (in CCOC(C)=O) 443.66 nm; (in CCOCC) 429.92 nm; (in CO) 490.2 nm.

For `COC(=O)c1cc(=O)n(C)c2cc(-c3ccc(N4CCN(C)CC4)cc3)sc12`, the emission maximum worked out at 587 nm (in CC#N) and 550 nm (in ClCCl).

Turning to `CC1(C)OB(c2cc3ccc4cc(B5OC(C)(C)C(C)(C)O5)cc5ccc(c2)c3c45)OC1(C)C`, the emission maximum (in Cc1ccccc1) was 400 nm.

As for `O=c1c2ccccc2n2c3ccccc3c(=O)c3cc(-c4ccccc4)cc1c32`, the emission maximum is 475 nm (in CC#N); 447 nm (in CCCCCC); 454 nm (in CCCCOCCCC); 464 nm (in CCOC(C)=O); 477 nm (in CN(C)C=O); 464.98 nm (in Cc1ccccc1). The molecule further showed an emission maximum (in c1cc(-c2cccc(-n3c4ccccc4c4ccccc43)c2)cc(-n2c3ccccc3c3ccccc32)c1) of 472 nm and an emission maximum (in c1cc(-n2c3ccccc3c3ccccc32)cc(-n2c3ccccc3c3ccccc32)c1) of 472 nm.

`CC(C)(C)c1ccc2c3ccccc3c3cncnc3c2c1` registered an emission maximum (in ClCCl) of 376 nm.
